In one series the target is T1, wild-type M1 mAChR (Homo sapiens, UniProt P11229).
T1 construct: HA; expressed in transfected cells; host or cells: CHO Flp-In
The series is described as follows: Receptor phosphorylation at serine 228, M1 wild type, CHO Flp-In cells. It is filed as cell-based.

The next series has as its target T2, human mAChR M3 (Homo sapiens, UniProt P20309).
T2 construct: purchased PerkinElmer; host or cells: CHO
Put plainly: [3H]-NMS competition binding, CHO membranes, M3. To be noted: compared with other subtypes. The method, then:
For competition binding experiments at M1, M2, M3, M4, and M5 mAChRs, CHO membranes were purchased from PerkinElmer. All experiments were performed in assay buffer of the following composition: 20 mM HEPES, 100 mM NaCl, and 10 mM MgCl2, pH 7.5, and used 10 µg protein/well in a total assay volume of 1 ml using deep well blocks. […] All assay incubations were initiated by the addition of membrane suspensions and deep well blocks were shaken for 5 minutes to ensure complete mixing. Incubation was then carried out for 2 hours at 21°C. Binding reactions were terminated by rapid filtration through GF/A filters (PerkinElmer) presoaked with 0.5% (w/v) polyethylenimine for 1 hour. Filters were then washed three times with 1 ml ice-cold assay buffer.
(§1) Inhibition binding data were curve-fit using GraphPad Prism 6 to derive the potency (IC50) of the test compound. The equilibrium dissociation constant (KI) of the test compound was then calculated with the Cheng–Prusoff equation: KI = IC50/[1 + ([L]/KD)] using the KD value derived separately from saturation binding studies.

The next series deals with T3, M2 mAChR (Homo sapiens, UniProt P08172).
T3 construct: expressed in transfected cells; host or cells: CHO
T3 sequence (P08172 whole entry): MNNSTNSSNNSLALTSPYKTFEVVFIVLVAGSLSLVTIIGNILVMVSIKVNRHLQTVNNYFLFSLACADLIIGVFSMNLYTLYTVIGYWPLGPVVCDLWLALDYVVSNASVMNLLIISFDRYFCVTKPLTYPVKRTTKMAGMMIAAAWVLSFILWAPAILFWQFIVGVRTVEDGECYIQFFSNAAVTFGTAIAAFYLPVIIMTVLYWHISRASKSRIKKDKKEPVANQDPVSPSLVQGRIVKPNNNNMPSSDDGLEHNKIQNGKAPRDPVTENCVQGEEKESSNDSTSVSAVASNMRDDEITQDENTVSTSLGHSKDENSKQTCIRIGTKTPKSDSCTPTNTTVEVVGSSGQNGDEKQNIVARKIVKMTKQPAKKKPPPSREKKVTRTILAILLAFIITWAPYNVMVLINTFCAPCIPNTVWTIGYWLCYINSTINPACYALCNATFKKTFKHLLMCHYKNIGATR
Put plainly: ERK1/2 phosphorylation, CHO cells, M2. It is filed as cell-based.

A further series has as its target T4, M1 DREADD (Homo sapiens, UniProt P11229, A196G/Y106C).
T4 construct: HA; expressed in transfected cells; host or cells: CHO Flp-In
The series is described as follows: Receptor phosphorylation at serine 228, M1 DREADD, CHO Flp-In cells. It is filed as cell-based. To be noted: compared with wild type.

Another series deals with T5, M4 mAChR (Homo sapiens, UniProt P08173).
T5 construct: expressed in transfected cells; host or cells: CHO
T5 sequence (P08173 whole entry): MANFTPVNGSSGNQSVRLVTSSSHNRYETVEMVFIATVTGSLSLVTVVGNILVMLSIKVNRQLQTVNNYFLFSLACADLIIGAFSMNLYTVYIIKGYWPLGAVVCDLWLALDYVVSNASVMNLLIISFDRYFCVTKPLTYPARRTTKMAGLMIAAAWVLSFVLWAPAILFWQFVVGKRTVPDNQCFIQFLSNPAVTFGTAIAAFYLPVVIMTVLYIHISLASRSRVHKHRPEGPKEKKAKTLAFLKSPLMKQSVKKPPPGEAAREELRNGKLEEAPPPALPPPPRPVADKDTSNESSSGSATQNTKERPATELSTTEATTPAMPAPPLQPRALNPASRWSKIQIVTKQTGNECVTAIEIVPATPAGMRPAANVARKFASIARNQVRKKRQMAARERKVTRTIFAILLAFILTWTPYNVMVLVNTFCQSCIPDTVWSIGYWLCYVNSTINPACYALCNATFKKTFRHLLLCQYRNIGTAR
The series is described as follows: ERK1/2 phosphorylation, CHO cells, M4. It is filed as cell-based.

A further series addresses T6, human M1 receptor (Homo sapiens, UniProt P11229).
T6 construct: expressed in transfected cells; host or cells: CHO Flp-In
T6 sequence (P11229 1-460): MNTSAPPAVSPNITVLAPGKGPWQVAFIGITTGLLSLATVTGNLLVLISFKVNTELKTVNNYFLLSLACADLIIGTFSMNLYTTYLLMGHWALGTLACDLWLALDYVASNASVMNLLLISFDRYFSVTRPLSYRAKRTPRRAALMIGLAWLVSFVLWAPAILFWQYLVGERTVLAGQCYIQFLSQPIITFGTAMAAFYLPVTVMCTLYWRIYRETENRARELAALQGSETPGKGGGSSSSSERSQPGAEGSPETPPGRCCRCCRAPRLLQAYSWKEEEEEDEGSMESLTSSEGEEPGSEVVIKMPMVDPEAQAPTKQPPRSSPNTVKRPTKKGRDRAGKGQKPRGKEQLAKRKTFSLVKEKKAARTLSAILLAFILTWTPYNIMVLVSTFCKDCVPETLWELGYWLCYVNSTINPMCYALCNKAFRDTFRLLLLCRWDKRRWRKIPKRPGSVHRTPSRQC
Put plainly: ERK1/2 phosphorylation, CHO Flp-In human M1 cells. It is filed as cell-based. The method, then:
CHO Flp-In cells stably expressing the human M1 receptor were seeded onto transparent 96-well plates at 20,000 cells/well and grown to confluence. Cells were serum starved overnight prior to the experiment. Prior to the stimulations, cells were washed with 100 μl phosphate-buffered saline and then incubated in serum free F12 medium at 37°C. Cells were stimulated with ligands for 5 minutes at 37°C in a final volume of 200 μl. The stimulations were terminated by rapid aspiration and addition of 50 μl lysis buffer supplemented with blocking reagent per the manufacturer’s instructions, followed by gentle agitation at room temperature for 30 minutes. Subsequently, 16 μl of this lysate was transferred to a 384-well white ProxiPlate (PerkinElmer) and incubated with 4 μl premixed antibody solution for 2 hours at room temperature.
For the analysis, all families of agonist curves at each pathway were globally fitted to the model with the parameters, basal, Em, and n shared between all agonists. For full agonists, the LogKA was constrained to a value of zero, whereas for partial agonists this was directly estimated by the curve fitting procedure; the Log(τ/KA) parameter was estimated as a unique measure of activity for each agonist.

Series [1] has as its target T7, human M1 mAChR (Homo sapiens, UniProt P11229).
T7 sequence (P11229 1-460): T6 sequence (P11229 1-460)
The series is described as follows: Equilibrium [3H]-NMS binding, CHO Flp-In cell monolayers, wild-type M1. Further details: expressed in transfected cells; host or cells: CHO Flp-In. On the procedure: (§2) Prior to the experiment, cells were washed with 100 μl phosphate-buffered saline. […] Binding was terminated by rapid aspiration followed by two washes with 200 μl ice-cold 0.9% NaCl. Bound radioactivity was determined by liquid scintillation (Ultima Gold; PerkinElmer, Boston, MA) counting. Nonspecific binding was determined in the presence of 10 μM atropine.
as §1

For a further series, the target named is T8, M5 mAChR (Homo sapiens, UniProt P08912).
T8 construct: expressed in transfected cells; host or cells: CHO
T8 sequence (P08912 whole entry): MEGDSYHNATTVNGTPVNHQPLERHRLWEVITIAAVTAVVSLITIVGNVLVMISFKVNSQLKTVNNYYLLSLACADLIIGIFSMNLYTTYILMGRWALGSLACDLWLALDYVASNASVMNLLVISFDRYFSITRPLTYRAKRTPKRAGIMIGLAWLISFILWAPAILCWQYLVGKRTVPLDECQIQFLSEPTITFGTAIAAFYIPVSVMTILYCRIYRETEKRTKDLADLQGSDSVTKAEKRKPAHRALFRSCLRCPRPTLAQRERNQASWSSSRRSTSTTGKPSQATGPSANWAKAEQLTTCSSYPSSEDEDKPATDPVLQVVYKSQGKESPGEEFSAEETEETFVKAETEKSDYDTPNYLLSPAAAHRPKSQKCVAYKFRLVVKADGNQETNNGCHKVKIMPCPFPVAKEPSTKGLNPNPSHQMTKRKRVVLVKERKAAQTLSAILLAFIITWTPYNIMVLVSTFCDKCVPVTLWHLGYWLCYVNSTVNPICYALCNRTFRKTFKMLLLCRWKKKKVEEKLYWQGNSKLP
Put plainly: ERK1/2 phosphorylation, CHO cells, M5. It is filed as cell-based.

Series [2] has as its target T9, M3 mAChR (isolated rat ileum) (Rattus norvegicus, UniProt P08483).
T9 construct: from tissue; host or cells: ileum of adult Wistar rats
The series is described as follows: Isolated rat ileum contraction. Conditions: single experiment. On the procedure:
Adult Wistar rats were humanely euthanized and the left atria and the ileum were placed in an organ bath containing oxygenated Tyrode solution. Measurement of negative inotropic responses in atria or contraction of ileum was performed as described by [Lambrecht et al. (1989)]. For atrial responses, ligands were administered for 5 minutes at 32°C in McEwen’s buffer (pH 7.4) in a bath volume of 10 ml. […] For rat ileum experiments, ligands were administered for 5 minutes at 32°C in Krebs’ buffer (pH 7.4) in a bath volume of 10 ml. Contraction of ileum as a percentage of methacholine-induced contraction was measured, and antagonistic effects were measured by inhibition of methacholine-induced responses.

Series [3] concerns the target T7, human M1 mAChR. To be noted: 20 nM [^3H]-GSK1034702.
The target of series [4] is T7, human M1 mAChR. The series is described as follows: [3H]-NMS binding interaction studies with BQCA. Also noted: expressed in transfected cells; host or cells: CHO Flp-In. Conditions: increasing concentrations of BQCA. The method, then:
as §2

For a further series, the system named is humans. Further details: method as in Nathan et al., 2013. Conditions: ref Nathan et al., 2013; cited from earlier work.

Results on one compound are retold here after article PMC5963591, “Bitopic Binding Mode of an M1 Muscarinic Acetylcholine Receptor Agonist Associated with Adverse Clinical Trial Outcomes” (Molecular Pharmacology, 2018).

Each structure is given as a SMILES string.

T9 sequence (P08483 whole entry): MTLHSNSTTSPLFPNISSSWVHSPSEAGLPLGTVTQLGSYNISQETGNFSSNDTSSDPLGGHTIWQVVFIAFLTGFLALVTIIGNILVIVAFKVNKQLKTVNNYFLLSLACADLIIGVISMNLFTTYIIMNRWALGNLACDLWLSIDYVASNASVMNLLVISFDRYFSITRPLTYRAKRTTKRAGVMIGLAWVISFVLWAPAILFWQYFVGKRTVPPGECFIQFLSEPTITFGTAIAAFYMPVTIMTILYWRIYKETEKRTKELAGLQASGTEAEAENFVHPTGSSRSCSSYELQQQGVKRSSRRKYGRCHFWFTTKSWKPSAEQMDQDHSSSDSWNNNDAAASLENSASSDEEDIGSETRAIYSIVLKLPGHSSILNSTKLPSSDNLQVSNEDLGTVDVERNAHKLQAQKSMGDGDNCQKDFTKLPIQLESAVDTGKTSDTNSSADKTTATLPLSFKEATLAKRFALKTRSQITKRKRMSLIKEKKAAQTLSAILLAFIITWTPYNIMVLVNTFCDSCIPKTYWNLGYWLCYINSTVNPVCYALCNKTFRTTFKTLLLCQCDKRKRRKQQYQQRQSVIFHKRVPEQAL
T4 sequence (P11229 whole entry Y106C/A196G): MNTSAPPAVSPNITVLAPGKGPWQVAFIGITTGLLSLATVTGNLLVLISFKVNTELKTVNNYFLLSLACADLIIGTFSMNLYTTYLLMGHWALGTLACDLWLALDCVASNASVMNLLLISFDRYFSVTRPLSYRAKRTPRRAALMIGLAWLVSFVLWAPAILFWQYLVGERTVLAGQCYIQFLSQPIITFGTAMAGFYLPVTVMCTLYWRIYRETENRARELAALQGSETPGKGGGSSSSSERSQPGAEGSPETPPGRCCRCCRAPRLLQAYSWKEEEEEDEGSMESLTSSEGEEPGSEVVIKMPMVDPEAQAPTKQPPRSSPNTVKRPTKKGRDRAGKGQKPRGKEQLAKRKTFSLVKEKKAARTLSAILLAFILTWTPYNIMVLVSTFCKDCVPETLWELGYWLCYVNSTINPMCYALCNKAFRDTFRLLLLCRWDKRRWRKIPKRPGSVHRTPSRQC
T2 sequence (P20309 whole entry): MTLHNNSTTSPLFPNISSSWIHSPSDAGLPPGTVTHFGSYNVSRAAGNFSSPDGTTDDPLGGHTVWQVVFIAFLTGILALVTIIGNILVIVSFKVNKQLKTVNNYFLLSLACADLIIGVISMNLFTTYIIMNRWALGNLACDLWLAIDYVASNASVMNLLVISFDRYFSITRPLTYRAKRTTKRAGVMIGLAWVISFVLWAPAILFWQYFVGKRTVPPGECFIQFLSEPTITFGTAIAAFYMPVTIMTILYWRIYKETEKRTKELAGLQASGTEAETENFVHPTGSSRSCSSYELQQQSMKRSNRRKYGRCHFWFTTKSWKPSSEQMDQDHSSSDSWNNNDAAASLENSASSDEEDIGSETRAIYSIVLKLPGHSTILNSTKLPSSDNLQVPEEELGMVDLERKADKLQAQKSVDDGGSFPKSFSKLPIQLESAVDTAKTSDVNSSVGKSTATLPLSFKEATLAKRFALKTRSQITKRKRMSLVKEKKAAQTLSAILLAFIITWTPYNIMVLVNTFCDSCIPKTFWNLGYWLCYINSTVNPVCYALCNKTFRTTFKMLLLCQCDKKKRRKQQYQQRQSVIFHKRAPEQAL

`Cc1cc(F)c2[nH]c(=O)n(C3CCN(C4CCOCC4)CC3)c2c1` [GSK1034702, 7-fluoro-5-methyl-3-[1-(oxan-4-yl)piperidin-4-yl]-1H-benzimidazol-2-one]: the pSer228 immunoreactivity entry at wild-type M1 mAChR is on record as “concentration-dependent increase”. Also, at human mAChR M3, the “affinity for the M3 mAChR” value is listed as “much lower affinity”. For the same compound, the “functional activity in ERK1/2 phosphorylation” value (“functional activity” below) at M2 mAChR was “partial agonist activity”. Moreover, the “phosphorylation at serine 228” value at M1 DREADD is on record as “unchanged”. At M4 mAChR, the “functional activity” value is reported as “partial agonist activity”. The “ERK1/2 Phosphorylation ΔLog10(τ/KA)” value on human M1 receptor (normalized to reference ligand ACh) was 0.1 ± 0.1. In addition, on human M1 receptor (transduction coefficient, wild-type M1 mAChR), the “ERK1/2 Phosphorylation Log10(τ/KA)” value came to 7.2 ± 0.1. Besides, at human M1 mAChR [1], affinity was put at a Ki of 0.316 µM. The “inhibition of [^3H]-NMS binding” value at human M1 mAChR [1] ([^3H]-NMS 0.5 nM, CHO Flp-In cell monolayers) was “fully inhibited”. Further, the “functional activity” value at M5 mAChR is recorded as “partial agonist activity”. Moreover, in series [2], the EC50 came out at 7 µM and the “rat ileum contraction, % of maximal methacholine-induced contraction” value is listed as “approximately 50%”. For the same compound, the concentration for half-maximal inhibition (IC50) in [2] (read-out: IC50, inhibition of methacholine-induced contraction of rat ileum) was 46 µM. Moreover, the “displacement of specific [^3H]-GSK1034702 binding” value on human M1 mAChR [3] is listed as “fully displaced”. The “modulation by BQCA of the displacement of [^3H]-NMS” value on human M1 mAChR [4] is on record as “not modulated”. Further, in the series with humans, the adverse effects entry is recorded as “induced gastrointestinal adverse effects” and the “effect on cognitive function” value is on record as “positive effects on cognitive function”.

In general, Ki refers to a dissociation constant, usually derived from enzyme kinetics or from competition with a known ligand. Low readings indicate higher affinity, high ones lower affinity. One may read the EC50 as the midpoint of the concentration-response curve. Broadly, the IC50 is the point on the concentration scale where inhibition reaches its midpoint.
